Test results reported in the NIST ThermoML archive (doi:10.1021/acs.jced.9b00171).
± gives the expanded uncertainty stated by the source.

What was measured:
[1] = refractive index (Na D-line) (dimensionless); settings: 101.3 kPa, Liquid, Standard Abbe refractometry
[2] = 101.3 kPa, Liquid, Oscillating disk viscometry

SMILES	refractive index ([1]; 293.15 K)	refractive index ([1]; 298.15 K)	refractive index ([1]; 303.15 K)	refractive index ([1]; 308.15 K)	refractive index ([1]; 313.15 K)	refractive index ([1]; 318.15 K)	refractive index ([1]; 323.15 K)	refractive index ([1]; 328.15 K)	refractive index ([1]; 333.15 K)	viscosity ([2]; 293.15 K)	viscosity ([2]; 298.15 K)	viscosity ([2]; 303.15 K)	viscosity ([2]; 308.15 K)	viscosity ([2]; 313.15 K)	viscosity ([2]; 318.15 K)	viscosity ([2]; 323.15 K)	viscosity ([2]; 328.15 K)	viscosity ([2]; 333.15 K)
CNCCO [2-(methylamino)ethanol]	1.4386 ± 0.0022	1.437 ± 0.0022	1.4352 ± 0.0022	1.4331 ± 0.0022	1.431 ± 0.0022	1.4288 ± 0.0022	1.4265 ± 0.0023	1.4242 ± 0.0023	1.4218 ± 0.0023	13.12 ± 2.9 mPa·s	10.28 ± 2.3 mPa·s	8.42 ± 1.8 mPa·s	6.78 ± 1.5 mPa·s	5.54 ± 1.2 mPa·s	4.61 ± 0.99 mPa·s	3.82 ± 0.82 mPa·s	3.13 ± 0.69 mPa·s	2.42 ± 0.56 mPa·s
NCCNCCO [N-(2-aminoethyl)ethanolamine]	1.4856 ± 0.0021	1.4842 ± 0.0021	1.4827 ± 0.0022	1.481 ± 0.0022	1.4792 ± 0.0022	1.4772 ± 0.0022	1.475 ± 0.002	1.4727 ± 0.0023	1.4702 ± 0.0023	153.62 ± 41 mPa·s	99.27 ± 27 mPa·s	71.31 ± 17 mPa·s	52.94 ± 13 mPa·s	37.67 ± 9.1 mPa·s	28.23 ± 6.5 mPa·s	21.55 ± 4.9 mPa·s	16.43 ± 3.8 mPa·s	12.74 ± 3 mPa·s
